Our source for the Kd values is ChEMBL document CHEMBL3991601, “The target landscape of clinical kinase drugs” (Science, 2017).

For orientation: Kd means a measure of binding affinity in units of concentration.

Active and inactive are the calls of the source. Cut-off read from the data, not from the text of the source, for most assays here: actives have a measured Kd and inactives only a lower limit. A value given as a limit tells only on which side of the number the result lay.

In assay [1] the target is Serine/threonine-protein kinase SIK2 (Homo sapiens, UniProt Q9H0K1).
Sequence of Serine/threonine-protein kinase SIK2 (Q9H0K1 whole entry): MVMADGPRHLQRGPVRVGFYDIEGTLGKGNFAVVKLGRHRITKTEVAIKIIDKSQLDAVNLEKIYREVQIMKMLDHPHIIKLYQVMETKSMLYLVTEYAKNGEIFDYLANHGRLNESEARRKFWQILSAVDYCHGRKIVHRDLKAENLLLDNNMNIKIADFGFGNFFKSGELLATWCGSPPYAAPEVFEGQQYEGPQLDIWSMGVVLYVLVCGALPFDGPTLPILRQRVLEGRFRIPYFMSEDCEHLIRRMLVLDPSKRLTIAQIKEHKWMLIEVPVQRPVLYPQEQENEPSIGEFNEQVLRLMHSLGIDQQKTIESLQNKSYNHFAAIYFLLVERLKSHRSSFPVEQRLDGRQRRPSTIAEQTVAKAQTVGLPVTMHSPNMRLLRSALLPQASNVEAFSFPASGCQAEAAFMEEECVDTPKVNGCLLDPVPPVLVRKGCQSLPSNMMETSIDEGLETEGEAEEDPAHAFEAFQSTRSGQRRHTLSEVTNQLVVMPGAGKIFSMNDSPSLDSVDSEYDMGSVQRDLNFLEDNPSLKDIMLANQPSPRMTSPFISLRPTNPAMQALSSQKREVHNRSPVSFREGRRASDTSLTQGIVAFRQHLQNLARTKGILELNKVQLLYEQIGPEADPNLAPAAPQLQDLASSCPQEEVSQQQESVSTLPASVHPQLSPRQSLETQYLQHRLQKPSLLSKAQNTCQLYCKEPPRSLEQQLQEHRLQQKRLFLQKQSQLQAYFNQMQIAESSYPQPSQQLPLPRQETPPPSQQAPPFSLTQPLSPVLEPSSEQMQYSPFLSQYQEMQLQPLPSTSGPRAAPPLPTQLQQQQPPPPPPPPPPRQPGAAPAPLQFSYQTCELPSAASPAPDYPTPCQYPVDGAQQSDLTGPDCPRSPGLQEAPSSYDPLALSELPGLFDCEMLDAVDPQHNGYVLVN
In assay [2] the target is Bone morphogenetic protein receptor type-1B (Homo sapiens, UniProt O00238).
Sequence of Bone morphogenetic protein receptor type-1B (O00238 whole entry): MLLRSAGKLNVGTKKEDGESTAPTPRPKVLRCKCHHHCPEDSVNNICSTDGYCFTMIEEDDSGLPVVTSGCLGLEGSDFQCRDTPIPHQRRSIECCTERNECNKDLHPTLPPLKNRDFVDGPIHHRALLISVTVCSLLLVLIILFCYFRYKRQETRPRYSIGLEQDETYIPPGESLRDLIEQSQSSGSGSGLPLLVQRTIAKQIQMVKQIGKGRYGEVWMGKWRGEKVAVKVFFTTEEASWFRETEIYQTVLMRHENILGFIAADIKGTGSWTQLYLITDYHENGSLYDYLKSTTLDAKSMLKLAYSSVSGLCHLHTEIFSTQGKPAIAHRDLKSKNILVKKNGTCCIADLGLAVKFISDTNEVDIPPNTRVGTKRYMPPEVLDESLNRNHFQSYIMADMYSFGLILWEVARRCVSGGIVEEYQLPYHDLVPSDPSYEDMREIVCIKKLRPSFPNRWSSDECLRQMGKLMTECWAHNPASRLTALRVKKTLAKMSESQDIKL
The target of assay [3] is T1, Acyl-CoA dehydrogenase family member 11 (Homo sapiens, UniProt Q709F0).
T1 sequence (Q709F0 whole entry): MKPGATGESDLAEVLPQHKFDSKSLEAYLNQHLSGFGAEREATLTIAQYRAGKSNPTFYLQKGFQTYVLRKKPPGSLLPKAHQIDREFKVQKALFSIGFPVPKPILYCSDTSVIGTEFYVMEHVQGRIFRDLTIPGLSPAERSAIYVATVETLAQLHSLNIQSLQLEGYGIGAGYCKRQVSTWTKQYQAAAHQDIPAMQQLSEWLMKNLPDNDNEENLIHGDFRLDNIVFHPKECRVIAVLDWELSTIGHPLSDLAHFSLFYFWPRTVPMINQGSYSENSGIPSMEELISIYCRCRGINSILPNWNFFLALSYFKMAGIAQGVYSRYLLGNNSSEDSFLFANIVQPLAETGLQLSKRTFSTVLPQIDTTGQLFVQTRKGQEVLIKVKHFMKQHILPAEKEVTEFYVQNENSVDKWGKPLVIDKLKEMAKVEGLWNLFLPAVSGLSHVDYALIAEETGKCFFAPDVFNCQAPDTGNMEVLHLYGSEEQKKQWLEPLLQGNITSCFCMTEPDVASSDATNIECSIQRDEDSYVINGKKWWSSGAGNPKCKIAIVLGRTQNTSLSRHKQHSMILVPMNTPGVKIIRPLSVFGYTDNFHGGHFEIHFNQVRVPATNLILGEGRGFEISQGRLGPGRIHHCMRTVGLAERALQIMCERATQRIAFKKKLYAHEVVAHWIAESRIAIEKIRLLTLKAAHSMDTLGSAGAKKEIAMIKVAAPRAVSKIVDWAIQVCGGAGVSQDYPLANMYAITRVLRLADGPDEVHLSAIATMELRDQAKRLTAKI

Assay [4] addresses Mitogen-activated protein kinase kinase kinase kinase 4 (Homo sapiens, UniProt O95819).
Assay [5] has as its target Serine/threonine-protein kinase 10 (Homo sapiens, UniProt O94804).
In assay [6] the target is Non-receptor tyrosine-protein kinase TYK2 (Homo sapiens, UniProt P29597).
Sequence of Non-receptor tyrosine-protein kinase TYK2 (P29597 whole entry): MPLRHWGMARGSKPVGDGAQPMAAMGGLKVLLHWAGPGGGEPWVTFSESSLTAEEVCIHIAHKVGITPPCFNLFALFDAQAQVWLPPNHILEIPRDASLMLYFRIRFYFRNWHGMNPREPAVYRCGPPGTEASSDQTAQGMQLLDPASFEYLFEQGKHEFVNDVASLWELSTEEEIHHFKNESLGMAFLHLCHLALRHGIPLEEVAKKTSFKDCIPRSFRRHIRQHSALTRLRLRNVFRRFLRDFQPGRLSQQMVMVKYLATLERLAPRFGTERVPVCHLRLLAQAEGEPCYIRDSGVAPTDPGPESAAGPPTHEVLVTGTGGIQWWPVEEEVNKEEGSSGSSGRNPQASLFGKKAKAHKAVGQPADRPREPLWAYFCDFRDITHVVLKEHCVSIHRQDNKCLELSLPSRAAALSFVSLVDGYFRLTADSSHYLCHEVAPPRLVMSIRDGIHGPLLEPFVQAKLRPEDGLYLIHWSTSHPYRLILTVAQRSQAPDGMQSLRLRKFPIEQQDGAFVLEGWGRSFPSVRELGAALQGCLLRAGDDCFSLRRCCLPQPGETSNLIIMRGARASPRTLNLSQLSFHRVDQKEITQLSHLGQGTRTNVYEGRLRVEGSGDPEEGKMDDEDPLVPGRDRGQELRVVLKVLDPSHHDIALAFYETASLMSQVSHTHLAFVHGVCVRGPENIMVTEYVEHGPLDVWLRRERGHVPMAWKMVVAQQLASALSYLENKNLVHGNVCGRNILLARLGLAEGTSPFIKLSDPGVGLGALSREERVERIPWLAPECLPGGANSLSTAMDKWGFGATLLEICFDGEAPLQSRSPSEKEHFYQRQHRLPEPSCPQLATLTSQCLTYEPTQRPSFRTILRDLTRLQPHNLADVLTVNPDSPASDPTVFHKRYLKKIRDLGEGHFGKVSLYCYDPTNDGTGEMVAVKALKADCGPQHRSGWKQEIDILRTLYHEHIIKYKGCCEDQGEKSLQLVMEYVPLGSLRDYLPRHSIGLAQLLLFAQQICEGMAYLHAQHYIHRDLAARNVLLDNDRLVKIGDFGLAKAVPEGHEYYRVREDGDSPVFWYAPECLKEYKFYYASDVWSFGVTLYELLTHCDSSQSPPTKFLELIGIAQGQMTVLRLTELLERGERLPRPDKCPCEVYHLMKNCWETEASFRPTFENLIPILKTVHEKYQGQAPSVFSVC
Assay [7] has as its target Mitogen-activated protein kinase 10 (Homo sapiens, UniProt P53779).
Another assay concerns the target T2, ADP/ATP translocase 2 (Homo sapiens, UniProt P05141).
T2 sequence (P05141 whole entry): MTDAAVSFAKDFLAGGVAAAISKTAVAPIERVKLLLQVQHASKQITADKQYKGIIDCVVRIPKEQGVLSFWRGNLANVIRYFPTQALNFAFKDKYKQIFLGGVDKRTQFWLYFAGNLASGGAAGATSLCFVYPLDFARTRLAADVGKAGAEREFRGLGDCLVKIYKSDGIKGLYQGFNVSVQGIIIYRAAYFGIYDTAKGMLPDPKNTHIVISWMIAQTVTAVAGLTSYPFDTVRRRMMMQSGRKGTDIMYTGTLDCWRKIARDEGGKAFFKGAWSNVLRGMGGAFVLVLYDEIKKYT

The target in a further assay is Wee1-like protein kinase (Homo sapiens, UniProt P30291).
Assay [8] addresses Cyclin-dependent kinase 3 (Homo sapiens, UniProt Q00526).
The target in assay [9] is T3, Serine/threonine-protein kinase ULK1 (Homo sapiens, UniProt O75385).
T3 sequence (O75385 whole entry): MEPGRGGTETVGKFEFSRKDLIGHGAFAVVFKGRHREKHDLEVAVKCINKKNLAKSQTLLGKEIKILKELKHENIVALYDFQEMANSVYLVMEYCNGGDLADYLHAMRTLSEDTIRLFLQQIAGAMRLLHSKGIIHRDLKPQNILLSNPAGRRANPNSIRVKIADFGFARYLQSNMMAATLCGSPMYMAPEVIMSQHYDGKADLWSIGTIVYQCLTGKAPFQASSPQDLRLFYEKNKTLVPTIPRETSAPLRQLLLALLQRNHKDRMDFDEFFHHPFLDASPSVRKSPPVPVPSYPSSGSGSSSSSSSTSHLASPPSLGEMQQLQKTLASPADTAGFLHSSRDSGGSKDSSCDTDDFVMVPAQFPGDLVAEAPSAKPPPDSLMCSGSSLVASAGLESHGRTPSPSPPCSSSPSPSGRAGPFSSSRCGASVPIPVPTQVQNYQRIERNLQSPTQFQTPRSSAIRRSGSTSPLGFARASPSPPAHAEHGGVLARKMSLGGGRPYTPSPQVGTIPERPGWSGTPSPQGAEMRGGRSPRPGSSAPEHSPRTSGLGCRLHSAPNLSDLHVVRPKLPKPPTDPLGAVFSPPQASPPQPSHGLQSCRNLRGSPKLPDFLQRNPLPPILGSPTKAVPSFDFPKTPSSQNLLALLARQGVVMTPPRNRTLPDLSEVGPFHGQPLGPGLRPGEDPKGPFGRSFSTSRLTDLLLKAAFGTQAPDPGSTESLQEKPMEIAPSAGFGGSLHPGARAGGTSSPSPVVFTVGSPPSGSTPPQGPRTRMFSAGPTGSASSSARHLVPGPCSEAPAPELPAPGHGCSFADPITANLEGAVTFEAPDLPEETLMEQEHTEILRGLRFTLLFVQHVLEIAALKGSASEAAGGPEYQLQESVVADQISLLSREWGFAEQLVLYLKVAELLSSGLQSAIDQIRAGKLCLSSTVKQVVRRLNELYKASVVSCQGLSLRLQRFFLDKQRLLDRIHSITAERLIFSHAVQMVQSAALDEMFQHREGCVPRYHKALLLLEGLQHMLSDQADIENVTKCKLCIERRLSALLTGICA

Assay [10] has as its target Protein-tyrosine kinase 6 (Homo sapiens, UniProt Q13882).
The next assay concerns the target GTP-binding protein 4 (Homo sapiens, UniProt Q9BZE4).
Note: in the data inactive means no Kd found up to 30 µM.

Sequence of Cyclin-dependent kinase 3 (Q00526 whole entry): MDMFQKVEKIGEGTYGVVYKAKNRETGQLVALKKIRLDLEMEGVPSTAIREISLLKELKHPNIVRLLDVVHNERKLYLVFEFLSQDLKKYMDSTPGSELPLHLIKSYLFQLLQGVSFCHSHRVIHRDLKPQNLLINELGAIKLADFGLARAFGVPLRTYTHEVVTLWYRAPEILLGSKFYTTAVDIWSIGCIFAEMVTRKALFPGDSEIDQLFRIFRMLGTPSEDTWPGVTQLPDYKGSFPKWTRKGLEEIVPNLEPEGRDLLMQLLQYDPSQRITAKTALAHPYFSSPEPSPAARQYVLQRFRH
Sequence of Mitogen-activated protein kinase 10 (P53779 whole entry): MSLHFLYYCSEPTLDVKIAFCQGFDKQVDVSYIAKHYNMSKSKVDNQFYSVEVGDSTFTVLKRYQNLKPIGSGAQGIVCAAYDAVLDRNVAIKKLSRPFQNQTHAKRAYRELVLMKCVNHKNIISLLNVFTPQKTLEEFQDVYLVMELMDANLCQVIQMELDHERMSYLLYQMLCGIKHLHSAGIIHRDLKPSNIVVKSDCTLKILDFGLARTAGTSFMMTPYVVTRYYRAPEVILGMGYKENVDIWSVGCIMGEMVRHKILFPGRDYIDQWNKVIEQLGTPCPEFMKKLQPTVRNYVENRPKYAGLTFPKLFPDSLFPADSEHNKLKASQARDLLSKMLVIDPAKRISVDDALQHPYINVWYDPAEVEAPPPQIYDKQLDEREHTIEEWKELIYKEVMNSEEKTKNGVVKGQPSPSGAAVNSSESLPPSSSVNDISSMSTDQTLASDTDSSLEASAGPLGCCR
Sequence of Mitogen-activated protein kinase kinase kinase kinase 4 (O95819 whole entry): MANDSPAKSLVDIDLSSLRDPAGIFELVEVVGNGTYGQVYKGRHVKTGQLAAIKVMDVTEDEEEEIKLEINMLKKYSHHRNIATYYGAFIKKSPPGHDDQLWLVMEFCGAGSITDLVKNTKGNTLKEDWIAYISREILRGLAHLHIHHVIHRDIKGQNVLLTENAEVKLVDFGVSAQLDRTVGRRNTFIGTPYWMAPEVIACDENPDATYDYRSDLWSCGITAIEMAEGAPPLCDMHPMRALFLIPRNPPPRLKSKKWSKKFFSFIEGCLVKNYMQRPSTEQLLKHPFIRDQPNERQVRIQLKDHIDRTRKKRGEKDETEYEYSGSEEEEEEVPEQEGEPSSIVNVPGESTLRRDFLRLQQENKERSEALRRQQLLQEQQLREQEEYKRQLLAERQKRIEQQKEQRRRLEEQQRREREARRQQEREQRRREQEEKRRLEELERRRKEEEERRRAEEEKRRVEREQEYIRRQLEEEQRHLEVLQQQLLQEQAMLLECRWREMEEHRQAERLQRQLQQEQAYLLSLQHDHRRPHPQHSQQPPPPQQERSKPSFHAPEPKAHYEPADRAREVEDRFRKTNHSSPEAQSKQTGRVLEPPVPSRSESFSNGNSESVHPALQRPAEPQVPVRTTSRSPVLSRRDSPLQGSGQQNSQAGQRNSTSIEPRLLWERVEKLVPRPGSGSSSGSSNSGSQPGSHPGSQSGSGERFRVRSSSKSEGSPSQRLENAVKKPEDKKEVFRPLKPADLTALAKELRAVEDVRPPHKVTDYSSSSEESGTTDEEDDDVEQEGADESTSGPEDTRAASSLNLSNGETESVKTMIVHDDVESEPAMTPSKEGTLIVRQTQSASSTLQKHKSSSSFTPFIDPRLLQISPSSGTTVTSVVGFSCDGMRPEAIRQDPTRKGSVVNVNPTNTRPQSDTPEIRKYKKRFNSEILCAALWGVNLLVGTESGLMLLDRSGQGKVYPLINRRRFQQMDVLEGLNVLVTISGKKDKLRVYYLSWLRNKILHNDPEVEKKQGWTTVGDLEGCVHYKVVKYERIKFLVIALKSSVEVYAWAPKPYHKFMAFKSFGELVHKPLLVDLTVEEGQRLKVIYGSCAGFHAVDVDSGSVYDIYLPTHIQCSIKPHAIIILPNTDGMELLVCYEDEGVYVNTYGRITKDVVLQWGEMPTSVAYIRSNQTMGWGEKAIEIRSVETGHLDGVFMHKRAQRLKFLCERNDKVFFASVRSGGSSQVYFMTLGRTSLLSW
Sequence of Protein-tyrosine kinase 6 (Q13882 whole entry): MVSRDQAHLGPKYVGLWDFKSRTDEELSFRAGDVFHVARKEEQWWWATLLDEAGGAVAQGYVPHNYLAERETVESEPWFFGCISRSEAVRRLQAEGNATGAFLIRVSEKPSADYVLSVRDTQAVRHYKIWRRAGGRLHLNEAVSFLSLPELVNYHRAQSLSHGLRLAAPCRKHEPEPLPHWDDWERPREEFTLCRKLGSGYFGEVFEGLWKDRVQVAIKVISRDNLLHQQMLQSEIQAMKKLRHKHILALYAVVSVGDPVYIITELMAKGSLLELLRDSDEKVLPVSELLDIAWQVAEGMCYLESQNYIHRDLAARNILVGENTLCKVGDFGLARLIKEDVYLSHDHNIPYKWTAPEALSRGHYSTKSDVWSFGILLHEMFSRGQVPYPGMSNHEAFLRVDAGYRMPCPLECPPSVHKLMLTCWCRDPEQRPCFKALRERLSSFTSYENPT

As to `C[C@@H](Nc1cc(F)cc(F)c1)c1cc(C(=O)N(C)C)cc2c(=O)cc(N3CCOCC3)oc12` [AZD-8186], the Kd in assay [1], in assay [2], in assay [3], in assay [4], in [5] and in assay [6] was > 30 µM (inactive) throughout. The Kd (in assay [7]; at ADP/ATP translocase 2; at Wee1-like protein kinase; in assay [8]; in [9]; in assay [10]) was > 30 µM (inactive) each time.

As to `COc1cc(OC)c(/C=C/S(=O)(=O)Cc2ccc(OC)c(NCC(=O)O)c2)c(OC)c1` [RIGOSERTIB], the Kd in [1], in [2], in assay [3], in assay [4], in assay [5] and in assay [6] was > 30 µM (inactive) throughout. Further, the Kd (in assay [7]; on ADP/ATP translocase 2; at Wee1-like protein kinase; at GTP-binding protein 4; in assay [8]; in assay [9]) was > 30 µM (inactive) each time. In addition, the Kd in assay [10] is > 30 µM (inactive).

On to `CN1N=C(N)c2cn([C@@H]3O[C@H](COP(=O)(O)O)[C@@H](O)[C@H]3O)c3ncnc1c23` [TRICIRIBINE PHOSPHATE], for which the Kd in assay [1], in assay [3], in assay [4], in assay [5], in assay [6] and in assay [7] was > 30 µM (inactive) throughout. The Kd (on ADP/ATP translocase 2; at Wee1-like protein kinase; at GTP-binding protein 4; in [8]; in assay [9]; in [10]) was > 30 µM (inactive) each time.

As for `COCCNCc1ccc(-c2cc3nccc(Oc4ccc(NC(=S)NC(=O)Cc5ccc(F)cc5)cc4F)c3s2)nc1` [GLESATINIB], the Kd in assay [1] is > 30 µM (inactive); in [2], > 30 µM (inactive); in assay [3], > 30 µM (inactive); in assay [4] it was 0.6 µM; in assay [5] it was > 30 µM (inactive); in [6], > 30 µM (inactive). Further, the Kd (in [7]; at ADP/ATP translocase 2; on Wee1-like protein kinase; at GTP-binding protein 4; in [8]; in assay [9]) was > 30 µM (inactive) each time.

As to `CCn1c(=O)c(-c2cc[nH]n2)cc2c(C)nc(N)nc21` [VOXTALISIB], the Kd in [1], in [2], in assay [3], in assay [4], in [5] and in assay [6] was > 30 µM (inactive) each time. In addition, the Kd (in assay [7]; on ADP/ATP translocase 2; on Wee1-like protein kinase; in [8]; in [9]; in assay [10]) was > 30 µM (inactive) each time.

With `CNC(=O)c1ccc(C)c(-n2c(C)cc(OCc3ccc(F)cc3F)c(Br)c2=O)c1` [PH-797804], the Kd in assay [1], in [2], in [3], in assay [4], in [5] and in assay [6] was > 30 µM (inactive) each time. Also, the Kd (in assay [7]; on ADP/ATP translocase 2; at Wee1-like protein kinase; at GTP-binding protein 4; in [8]; in assay [10]) was > 30 µM (inactive) each time.
